Data reported in ChEMBL document CHEMBL1130609, “2-Pyridinyl-3-(4-methylsulfonyl)phenylpyridines: selective and orally active cyclooxygenase-2 inhibitors” (Bioorg Med Chem Lett, 1998).

Key:
[1] = target: T1, Prostaglandin G/H synthase 2 (Homo sapiens, UniProt P35354); assay: In vitro inhibition of PGE-2 produced by arachidonic acid-stimulated CHO cells stably expressing human Prostaglandin G/H synthase 2
T1 sequence (P35354 whole entry): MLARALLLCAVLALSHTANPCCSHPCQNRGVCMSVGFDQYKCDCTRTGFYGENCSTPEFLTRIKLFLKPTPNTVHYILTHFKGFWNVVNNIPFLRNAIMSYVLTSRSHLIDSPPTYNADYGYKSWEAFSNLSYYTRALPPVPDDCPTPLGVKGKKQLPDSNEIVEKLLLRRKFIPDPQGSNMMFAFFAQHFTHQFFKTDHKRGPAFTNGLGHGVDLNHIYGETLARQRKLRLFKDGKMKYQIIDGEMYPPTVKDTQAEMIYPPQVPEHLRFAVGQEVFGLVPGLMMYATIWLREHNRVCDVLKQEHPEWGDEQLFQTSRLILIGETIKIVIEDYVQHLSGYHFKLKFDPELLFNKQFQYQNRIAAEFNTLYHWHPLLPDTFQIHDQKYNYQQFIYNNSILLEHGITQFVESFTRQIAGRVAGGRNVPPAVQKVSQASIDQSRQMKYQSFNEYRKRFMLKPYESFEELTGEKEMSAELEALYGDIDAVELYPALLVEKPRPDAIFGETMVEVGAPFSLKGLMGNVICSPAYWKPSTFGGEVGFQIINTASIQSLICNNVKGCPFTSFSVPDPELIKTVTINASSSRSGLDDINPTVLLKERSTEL

[2] = target: Prostaglandin G/H synthase 1 (Homo sapiens, UniProt P23219); assay: Inhibition of Prostaglandin G/H synthase 1 was measured by the inhibition of PGE-2 produced by microsomes from U937 cells at subsaturating arachidonic acid conc.; assay type: cell-based, U-937
[3] = target: T1, Prostaglandin G/H synthase 2
Description: Inhibition of Prostaglandin G/H synthase 2 was measured by the inhibition of PGE-2 produced by lipopolysaccharide-challenged HWB

Rattus norvegicus [4] = assay: Efficacy in rat paw edema assay upon oral administration.; assay type: functional
Rattus norvegicus [5] = assay: Efficacy in rat pyresis assay upon oral administration; assay type: functional
[6] = Compound was evaluated for plasma concentration in rats when administered at 20 mg/kg in methocel at 2 hr; assay type: ADME, organism-based; set-up: dose 20 mg/kg; details: rat, read-out: Cmax
Rattus norvegicus [7] = assay: In vivo potency at 20 mg/kg in the rat paw edema assay; assay type: functional
[8] = Compound was evaluated for plasma concentration in rats when administered at 20 mg/kg in methocel at 1 hr; assay type: ADME, organism-based; set-up: dose 20 mg/kg; details: rat, read-out: Cmax
Rattus norvegicus [9] = assay: In vivo potency at 10 mg/kg in the rat paw edema assay; assay type: functional
Rattus norvegicus [10] = assay: Compound was evaluated for efficacy in rat paw edema assay upon oral administration; assay type: functional
Rattus norvegicus [11] = assay: In vivo inhibitory dose in carrageenan-induced hyperalgesia in rats; assay type: functional; details: read-out: ID50 (the source's name)
Rattus norvegicus [12] = assay: In vivo inhibitory dose in adjuvant-induced arthritis in rats; assay type: functional
[13] = Compound was evaluated for plasma concentration in rats when administered at 20 mg/kg in methocel at 0.5 hr; assay type: ADME, organism-based; set-up: dose 20 mg/kg; details: rat, read-out: Cmax

Chain of Prostaglandin G/H synthase 1 (P23219 whole entry): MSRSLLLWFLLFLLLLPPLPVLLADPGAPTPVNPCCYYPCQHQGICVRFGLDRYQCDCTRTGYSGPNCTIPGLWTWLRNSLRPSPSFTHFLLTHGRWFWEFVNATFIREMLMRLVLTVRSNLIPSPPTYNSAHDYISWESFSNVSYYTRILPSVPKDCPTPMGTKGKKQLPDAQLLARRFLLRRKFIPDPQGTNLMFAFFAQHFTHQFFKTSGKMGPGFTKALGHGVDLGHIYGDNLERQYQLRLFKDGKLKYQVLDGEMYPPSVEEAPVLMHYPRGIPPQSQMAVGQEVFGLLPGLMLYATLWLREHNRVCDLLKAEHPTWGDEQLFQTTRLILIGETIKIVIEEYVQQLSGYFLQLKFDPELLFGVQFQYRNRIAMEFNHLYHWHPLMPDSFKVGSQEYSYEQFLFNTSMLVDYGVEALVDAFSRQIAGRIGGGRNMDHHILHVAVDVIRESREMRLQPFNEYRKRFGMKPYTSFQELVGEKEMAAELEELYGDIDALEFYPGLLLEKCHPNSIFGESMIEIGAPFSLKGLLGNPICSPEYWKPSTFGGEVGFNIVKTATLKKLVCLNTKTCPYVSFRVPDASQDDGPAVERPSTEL

Row | Compound | IC50 [1] | IC50 [2] | IC50 [3] | ED50 (Rattus norvegicus [4]) | ED50 (Rattus norvegicus [5]) | further results
1 | COc1cc(-c2ccc(S(C)(=O)=O)cc2)c(-c2ccc(F)cc2)c(C(F)(F)F)n1 |  |  |  |  |  | inhibition in vivo at 20 mg/kg (Rattus norvegicus [7]): 12%
2 | Cc1cnc(-c2cccnc2)c(-c2ccc(S(C)(=O)=O)cc2)c1 | 350 nM | 59000 nM | 2100 nM |  |  | 
3 | Cc1ccc(-c2ncc(Cl)cc2-c2ccc(S(N)(=O)=O)cc2)cn1 | 23 nM | 800 nM | 2400 nM |  |  | 
4 | COc1nc(-c2ccc(F)cc2)c(-c2ccc(S(C)(=O)=O)cc2)cc1C#N |  |  |  |  |  | inhibition in vivo at 10 mg/kg (Rattus norvegicus [9]): 16%
5 | CS(=O)(=O)c1ccc(-c2cc(Br)sc2-c2ccc(F)cc2)cc1 [DUP-697] |  |  |  | 1.3 mg/kg |  | 
6 | COc1ccc2c(c1)c(CC(=O)O)c(C)n2C(=O)c1ccc(Cl)cc1 [INDOMETHACIN] |  |  |  |  | 1.1 mg/kg | ED50 (Rattus norvegicus [10]): 2 mg/kg; ED50 (Rattus norvegicus [11]): 1.5 mg/kg; ID50 (Rattus norvegicus [12]): 0.2 mg kg-1 day-1 b.i.d.
7 | CS(=O)(=O)c1ccc(-c2cc(Cl)cnc2-c2ccccn2)cc1 | 68 nM | 63000 nM | 5800 nM |  |  | 
8 | CS(=O)(=O)c1ccc(-c2cc(Cl)cnc2-c2ccncc2)cc1 |  | 81000 nM |  |  |  | 
9 | Cc1ncccc1-c1ncc(Cl)cc1-c1ccc(S(C)(=O)=O)cc1 | 1330 nM | 45000 nM | 2600 nM |  |  | 

Further lines, with some results ahead:

Row | IC50 [1] | IC50 [2] | IC50 [3] | Compound | ED50 (Rattus norvegicus [4]) | ED50 (Rattus norvegicus [5]) | further results
10 | 610 nM | > 100000 nM | > 33000 nM | CS(=O)(=O)c1ccc(-c2cccnc2-c2cccnc2)cc1 |  |  | 
11 |  | 31000 nM |  | CS(=O)(=O)c1ccc(-c2cc(C(F)(F)F)cnc2-c2cccnc2)cc1 | 1.7 mg/kg | 1.4 mg/kg | concentration at 2 h [6]: 24 µM
12 |  | 12000 nM |  | Cc1ccc(-c2ncc(Cl)cc2-c2ccc(S(C)(=O)=O)cc2)cn1 [ETORICOXIB] | 0.6 mg/kg | 0.5 mg/kg | concentration at 1 h [8]: 30 µM
13 | 16 nM | 6000 nM |  | CS(=O)(=O)c1ccc(-c2cc(Cl)cnc2-c2ccc(C3CC3)nc2)cc1 | 2 mg/kg | 4.9 mg/kg | concentration at 2 h [6]: 9 µM
14 | 34 nM | 19000 nM | 900 nM | CS(=O)(=O)c1ccc(-c2cc(Cl)cnc2-c2cccnc2)cc1 | 2.3 mg/kg | 0.8 mg/kg | concentration at 2 h [6]: 52 µM
15 |  | 20000 nM |  | CS(=O)(=O)c1ccc(-c2cccnc2-c2ccccc2)cc1 | > 10 mg/kg |  | concentration at 0.5 h [13]: 40 µM
16 | 830 nM | > 100000 nM | 2700 nM | Cc1ccncc1-c1ncc(Cl)cc1-c1ccc(S(C)(=O)=O)cc1 |  |  | 
17 | 87 nM | > 100000 nM | 3800 nM | Cc1cncc(-c2ncc(Cl)cc2-c2ccc(S(C)(=O)=O)cc2)c1 |  |  | 
18 |  | 13000 nM |  | CCc1ccc(-c2ncc(Cl)cc2-c2ccc(S(C)(=O)=O)cc2)cn1 | 1.6 mg/kg | 2.6 mg/kg | concentration at 0.5 h [13]: 9 µM
